Laboratory results taken from US6908897B2, “Covalently bridged insulin dimers” (Aventis Pharma Deutschland GmbH, priority 1999, dated 2005).

Tests used:
insulin receptors = biological target: T1, insulin receptors (Homo sapiens, UniProt P06213); assay: Receptor binding by displacement studies on IM-9 lymphocytes; conditions: compared with native insulin
T1 construct: endogenous in cells; host or cells: IM-9 lymphocytes
Protocol: (§1) The receptor binding was determined by displacement studies on IM-9 lymphocytes. The relative biological activity was determined on cultivated 3T3-L1 adipocytes in the form of the glucose transport.

3T3-L1 adipocytes = assay: Relative biological activity as glucose transport in cultivated 3T3-L1 adipocytes; assay type: cell-based; conditions: compared with native insulin
Protocol: as §1

[1] = literature value; cited from earlier work

T1 sequence (P06213 28-758 limits assumed): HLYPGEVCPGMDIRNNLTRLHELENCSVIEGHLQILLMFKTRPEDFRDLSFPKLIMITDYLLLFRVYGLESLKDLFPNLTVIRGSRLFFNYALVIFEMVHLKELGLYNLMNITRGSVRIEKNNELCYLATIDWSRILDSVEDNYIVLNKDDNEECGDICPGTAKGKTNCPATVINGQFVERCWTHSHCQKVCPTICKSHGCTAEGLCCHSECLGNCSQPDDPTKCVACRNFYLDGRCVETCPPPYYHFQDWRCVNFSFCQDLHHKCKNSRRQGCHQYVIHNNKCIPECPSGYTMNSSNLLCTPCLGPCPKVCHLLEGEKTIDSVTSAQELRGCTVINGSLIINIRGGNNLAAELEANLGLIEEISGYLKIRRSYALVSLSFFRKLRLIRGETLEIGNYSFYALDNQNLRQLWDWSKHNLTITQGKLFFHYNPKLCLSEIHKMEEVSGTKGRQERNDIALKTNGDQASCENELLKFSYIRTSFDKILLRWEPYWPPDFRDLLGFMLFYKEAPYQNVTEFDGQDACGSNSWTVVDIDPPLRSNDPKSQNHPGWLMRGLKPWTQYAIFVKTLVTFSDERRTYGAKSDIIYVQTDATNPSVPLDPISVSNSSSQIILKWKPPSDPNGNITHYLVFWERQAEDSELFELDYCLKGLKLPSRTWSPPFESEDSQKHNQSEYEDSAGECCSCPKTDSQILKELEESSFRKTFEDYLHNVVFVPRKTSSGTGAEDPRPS
T1 sequence (P06213 763-1382 partner limits assumed): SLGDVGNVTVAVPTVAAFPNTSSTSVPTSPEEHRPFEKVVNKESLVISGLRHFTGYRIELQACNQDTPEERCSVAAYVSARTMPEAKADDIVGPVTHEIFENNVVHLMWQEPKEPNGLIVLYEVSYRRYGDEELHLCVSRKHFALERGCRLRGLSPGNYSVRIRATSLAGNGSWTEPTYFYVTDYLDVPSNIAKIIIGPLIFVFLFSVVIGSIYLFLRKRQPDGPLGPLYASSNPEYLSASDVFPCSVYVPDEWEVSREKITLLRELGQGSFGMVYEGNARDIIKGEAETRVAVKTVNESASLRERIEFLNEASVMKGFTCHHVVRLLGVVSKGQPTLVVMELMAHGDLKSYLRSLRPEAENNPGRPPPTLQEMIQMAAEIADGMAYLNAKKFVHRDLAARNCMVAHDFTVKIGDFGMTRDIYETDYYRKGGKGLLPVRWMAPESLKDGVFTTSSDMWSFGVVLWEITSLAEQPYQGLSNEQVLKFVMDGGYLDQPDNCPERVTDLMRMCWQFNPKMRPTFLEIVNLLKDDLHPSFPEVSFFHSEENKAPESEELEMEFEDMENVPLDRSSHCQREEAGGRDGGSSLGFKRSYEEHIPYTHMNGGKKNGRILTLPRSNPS

Rel. receptor binding (insulin receptors) [%]	Substance	Rel. biol. activity (3T3-L1 adipocytes) [%]	bioactivity in vitro [1] [%]
176 ± 45.8	B1,B1′-Sub-[Glu^B26}-des-(B27-B30)-insulin-B26-amide Insulin Dimer	817.5 ± 224	
412 ± 94.8	B1,B1′-Sub-[Sar^B26]-des-(B27-B30)-insulin-B26-amide Insulin Dimer	1957 ± 575	
	B1,B1′-suberoyl-insulin dimer		28.8
